# pIC50: −log10 of the molar value. Structures can show the parent of a compound that is named as a salt.
# Experiments:
# human PDE5 = molecular target: T1, human PDE5 (Homo sapiens, UniProt O76074); experiment: Inhibition of PDE5 activity (modified SPA test, human platelet lysate); format: biochemical; details: PDE5-containing human platelet lysate, 0.5 μM cGMP substrate, 37° C.
# T1 construct: from tissue; host or cells: human platelets from fresh donor blood (10,000 g supernatant of sonified platelets)
# Method: As a source for human PDE5, platelets were used. For that purpose, 150 ml fresh blood from human donors anticoagulated with citrate [final concentration 0.3% (w/v)] was centrifuged at 200 g for 10 min to obtain the so-called platelet-rich-plasma (PRP) as a supernatant. 1/10 volume of ACD solution (85 mM Na3-citrate, 111 mM D-glucose, 71 mM citric acid, pH 4.4) was added to 9/10 volume of PRP. After centrifugation (1,400 g, 10 min) the cell pellet was resuspended in 3 ml homogenization buffer (NaCl 140 mM, KCl 3.8 mM, EGTA 1 mM, MgCl2 1 mM, Tris-HCl 20 mM, beta-mercaptoethanol 1 mM, pH 8.2) plus protease-inhibitor mix giving rise to the final concentrations of 0.5 mM Pefablock (Roche), 10 μM Leupeptin, 5 μM Trypsininhibitor, 2 mM Benzamidin and 10 μM Pepstatin A. The suspension was sonified and thereafter centrifuged for 15 min at 10,000 g. The resulting supernatant (platelet lysate) was used for enzymatic testings.
# PDE5A1 activity is inhibited by the compounds of the invention in a modified SPA (scintillation proximity assay) test, supplied by Amersham Biosciences (see procedural instructions “phosphodiesterase [3H]cAMP SPA enzyme assay, code TRKQ 7090”), carried out in 96-well microtitre plates (MTP's). The test volume is 100 μl and contains 20 mM Tris buffer (pH 7.4), 0.1 mg of BSA (bovine serum albumin)/ml, 5 mM Mg^2+, 1 μM motapizone, 10 nM PDE2 inhibitor BAY-60-7550, 0.5 μM cGMP (including about 50,000 cpm of [3H]cGMP as a tracer), 1 μl of the respective compound dilution in dimethylsulfoxide (DMSO) and sufficient PDE5-containing platelet lysat (10,000×g supernatant, see above) to ensure that 10-20 wt % of the cGMP is converted under the said experimental conditions. […] After a preincubation of 5 min at 37° C., the reaction was started by adding the substrate (cGMP) and the assay was incubated for a further 15 min; after that, it was stopped by adding SPA beads (50 μl). In accordance with the manufacturer's instructions, the SPA beads had previously been resuspended in water, but were then diluted 1:3 (v/v) in water; the diluted solution also contains 3 mM 8-methoxymethyl-3-isobutyl-1-methylxanthine (IBMX) to ensure a complete PDE activity stop. After the beads have been sedimented (>30 min), the MTP's are analyzed in commercially available luminescence detection devices. The corresponding IC50 values of the compounds for the inhibition of PDE activity are determined from the concentration-effect curves by means of non-linear regression.
Compound,pIC50 (human PDE5),melting point
"CC1(C)Cc2nc(Cc3ccc(OC(F)(F)F)cc3)c3[nH]c4ccccc4c3c2C(O)C1 (stereo not drawn) [Example 53, 3,3-Dimethyl-6-(4-trifluoromethoxy-benzyl)-2,3,4,7-tetrahydro-1H-indolo[2,3-c]quinolin-1-ol]",7.05,117 to 119 °C
"CC1(C)CC(=O)c2c(nc(Cc3cccc(N)c3)c3[nH]c4ccccc4c23)C1 [Example 41, 6-(3-Amino-benzyl)-3,3-dimethyl-2,3,4,7-tetrahydro-indolo[2,3-c]quinolin-1-one]",8.29,232 to 234 °C
"COc1ccc(Cc2nc3c(c4c2[nH]c2ccccc24)C(O)CCC3)cc1 (stereo not drawn) [Example 48, 6-(4-Methoxy-benzyl)-2,3,4,7-tetrahydro-1H-indolo[2,3-c]quinolin-1-ol]",7.88,204 °C
"CC1(C)CC(=O)c2c(nc(Cc3ccc4c(c3)OCO4)c3[nH]c4ccccc4c23)C1 [Example 37, 6-Benzo[1,3]dioxol-5-ylmethyl-3,3-dimethyl-2,3,4,7-tetrahydro-indolo[2,3-c]quinolin-1-one]",8.31,193 to 196 °C (dec.)
"CC(C)c1ccc(Cc2nc3c(c4c2[nH]c2ccccc24)C(O)CC(C)(C)C3)cc1 (stereo not drawn) [Example 58, 6-(4-Isopropyl-benzyl)-3,3-dimethyl-2,3,4,7-tetrahydro-1H-indolo[2,3-c]quinolin-1-ol]",6.83,112 to 114 °C
"COc1ccc(Cc2nc3c(c4c2[nH]c2ccccc24)C(=O)CC(C)(C)C3)c(F)c1F [Example 31, 6-(2,3-Difluoro-4-methoxy-benzyl)-3,3-dimethyl-2,3,4,7-tetrahydro-indolo[2,3-c]quinolin-1-one]",9.40,199 to 200 °C
"CC1(C)CC(=O)c2c(nc(Cc3ccc(Cl)cc3)c3[nH]c4ccccc4c23)C1 [Example 20, 6-(4-Chloro-benzyl)-3,3-dimethyl-2,3,4,7-tetrahydro-indolo[2,3-c]quinolin-1-one]",7.99,205 to 207 °C
"CC1(C)Cc2nc(Cc3ccc(O)c(F)c3)c3[nH]c4ccccc4c3c2[C@H](O)C1 [Example 87, (R)-6-(3-Fluoro-4-hydroxy-benzyl)-3,3-dimethyl-2,3,4,7-tetrahydro-1H-indolo[2,3-c]quinolin-1-ol]",–,232 to 234 °C
"CC1(C)Cc2nc(Cc3ccc(NC(N)=O)cc3)c3[nH]c4ccccc4c3c2C(O)C1 (stereo not drawn) [Example 70, [4-(1-Hydroxy-3,3-dimethyl-2,3,4,7-tetrahydro-1H-indolo[2,3-c]quinolin-6-ylmethyl)-phenyl]-urea]",7.64,236 to 238 °C
"COc1c(F)cc(Cc2nc3c(c4c2[nH]c2ccccc24)C(=O)CC(C)(C)C3)cc1F [Example 32, 6-(3,5-Difluoro-4-methoxy-benzyl)-3,3-dimethyl-2,3,4,7-tetrahydro-indolo[2,3-c]quinolin-1-one]",9.72,195 to 196 °C
"COc1ccc(Cc2nc3c(c4c2[nH]c2ccccc24)[C@H](O)CCC3)cc1F [Example 83, (R)-6-(3-Fluoro-4-methoxy-benzyl)-2,3,4,7-tetrahydro-1H-indolo[2,3-c]quinolin-1-ol]",7.60,124 to 127 °C
"CC1(C)CC(=O)c2c(nc(Cc3ccc(OC(F)(F)F)cc3)c3[nH]c4ccccc4c23)C1 [Example 11, 3,3-Dimethyl-6-(4-trifluoromethoxy-benzyl)-2,3,4,7-tetrahydro-indolo[2,3-c]quinolin-1-one]",6.87,141 to 143 °C
"Brc1ccc(Cc2nc3c(c4c2[nH]c2ccccc24)CCCC3)cc1 (as salt: HCl) [Example 9, 6-(4-Bromo-benzyl)-2,3,4,7-tetrahydro-1H-indolo[2,3-c]quinoline, HCl salt]",–,311 to 312 °C
"CC1(C)Cc2nc(Cc3cc(F)cc(F)c3)c3[nH]c4ccccc4c3c2C(O)C1 (stereo not drawn) [Example 67, 6-(3,5-Difluoro-benzyl)-3,3-dimethyl-2,3,4,7-tetrahydro-1H-indolo[2,3-c]quinolin-1-ol]",8.10,117 to 123 °C
"COc1ccc(Cc2nc3c(c4c2[nH]c2ccccc24)C(=O)CCC3)cc1 [Example 2, 6-(4-Methoxy-benzyl)-2,3,4,7-tetrahydro-indolo[2,3-c]quinolin-1-one]",8.20,177 °C
"COc1ccc(Cc2nc3c(c4c2[nH]c2ccccc24)C(=O)CC(C)(C)C3)cc1F [Example 23, 6-(3-Fluoro-4-methoxy-benzyl)-3,3-dimethyl-2,3,4,7-tetrahydro-indolo[2,3-c]quinolin-1-one]",8.90,192 to 195 °C
"CC1(C)CC(=O)c2c(nc(Cc3ccc(Br)cc3)c3[nH]c4ccccc4c23)C1 (as salt: HCl) [Example 5, 6-(4-Bromo-benzyl)-3,3-dimethyl-2,3,4,7-tetrahydro-indolo[2,3-c]quinolin-1-one, HCl salt]",–,244 to 245 °C
"COc1ccc(Cc2c3[nH]c4ccccc4c3c3c([n+]2[O-])CC(C)(C)CC3O)cc1 (stereo not drawn) [Example 52, 6-(4-Methoxy-benzyl)-3,3-dimethyl-5-oxy-2,3,4,7-tetrahydro-1H-indolo[2,3-c]quinolin-1-ol]",7.69,185 °C
"CCOc1ccc(Cc2nc3c(c4c2[nH]c2ccccc24)C(=O)CC(C)(C)C3)cc1 [Example 12, 6-(4-Ethoxy-benzyl)-3,3-dimethyl-2,3,4,7-tetrahydro-indolo[2,3-c]quinolin-1-one]",7.57,179 to 181 °C
"COc1c(F)cc(Cc2nc3c(c4c2[nH]c2ccccc24)[C@H](O)CC(C)(C)C3)cc1F [Example 90, (R)-6-(3,5-Difluoro-4-methoxy-benzyl)-3,3-dimethyl-2,3,4,7-tetrahydro-1H-indolo[2,3-c]quinolin-1-ol]",–,161 to 162 °C
"CC1(C)Cc2nc(Cc3ccc4c(c3)OCO4)c3[nH]c4ccccc4c3c2C(O)C1 (stereo not drawn) (as salt: HCl) [Example 59, 6-Benzo[1,3]dioxol-5-ylmethyl-3,3-dimethyl-2,3,4,7-tetrahydro-1H-indolo[2,3-c]quinolin-1-ol]",–,114 to 119 °C
"CC1(C)CC(=O)c2c(nc(Cc3ccc([N+](=O)[O-])cc3)c3[nH]c4ccccc4c23)C1 [Example 16, 3,3-Dimethyl-6-(4-nitro-benzyl)-2,3,4,7-tetrahydro-indolo[2,3-c]quinolin-1-one]",–,164 to 166 °C
"CC1(C)CC(=O)c2c(nc(Cc3ccc([N+](=O)[O-])cc3)c3[nH]c4ccccc4c23)C1 (as salt: HCl) [Example 8, 3,3-Dimethyl-6-(4-nitro-benzyl)-2,3,4,7-tetrahydro-indolo[2,3-c]quinolin-1-one, HCl salt]",–,214 to 215 °C
"COc1ccc(Cc2nc3c(c4c2[nH]c2ccccc24)[C@@H](OC(=O)[C@@H]2CCC(=O)N2)CC(C)(C)C3)cc1F [Example 98, (S)-6-(3-Fluoro-4-methoxy-benzyl)-3,3-dimethyl-2,3,4,7-tetrahydro-1H-indolo[2,3-c]quinolin-1-ol pyroglutamate]",–,185 to 187 °C
"COc1c(F)cc(Cc2nc3c(c4c2[nH]c2ccccc24)[C@@H](O)CC(C)(C)C3)cc1F [Example 89, (S)-6-(3,5-Difluoro-4-methoxy-benzyl)-3,3-dimethyl-2,3,4,7-tetrahydro-1H-indolo[2,3-c]quinolin-1-ol]",–,161 to 162 °C
"Nc1ccc(Cc2nc3c(c4c2[nH]c2ccccc24)C(=O)CCC3)cc1 [Example 42, 6-(4-Amino-benzyl)-2,3,4,7-tetrahydro-indolo[2,3-c]quinolin-1-one]",7.59,–
"CC1(C)CC(=O)c2c(nc(Cc3ccc(O)cc3)c3[nH]c4ccccc4c23)C1 [Example 39, 6-(4-Hydroxy-benzyl)-3,3-dimethyl-2,3,4,7-tetrahydro-indolo[2,3-c]quinolin-1-one]",8.72,–
"CC1(C)Cc2nc(Cc3ccc(O)c(F)c3)c3[nH]c4ccccc4c3c2[C@@H](O)C1 [Example 88, (S)-6-(3-Fluoro-4-hydroxy-benzyl)-3,3-dimethyl-2,3,4,7-tetrahydro-1H-indolo[2,3-c]quinolin-1-ol]",–,233 to 234 °C
"COc1cccc(Cc2nc3c(c4c2[nH]c2ccccc24)C(=O)CC(C)(C)C3)c1 [Example 10, 6-(3-Methoxy-benzyl)-3,3-dimethyl-2,3,4,7-tetrahydro-indolo[2,3-c]quinolin-1-one]",7.10,–
